Values of other authors as cited in patent US20090010894A1, “METHODS AND SYSTEMS FOR IDENTIFYING COMPOUNDS THAT MODULATE ALPHA-SYNUCLEIN AGGREGATION” (The parkinson's Institute, priority 2005, published 2009).

Assays:
[1] = system: transgenic C. elegans expressing A53T, E46K, or A30P human α-synuclein; details: exogenous dopamine; transgenic worms expressing mutant human α-synuclein
[2] = target: α-synuclein (Homo sapiens, UniProt P37840); details: aggregated α-synuclein contacted with agent in vitro

Structure (SMILES)	reversal of failure in food-sensing behavior [1]	promotes disaggregation of α-synuclein [2]
NCCc1ccc(O)c(O)c1 [dopamine]	reversed these effects	
CO[C@H]1/C=C/O[C@@]2(C)Oc3c(C)c(O)c4c(O)c(c(/C=N/N5CCN(C)CC5)c(O)c4c3C2=O)NC(=O)/C(C)=C\C=C\[C@H](C)[C@H](O)[C@@H](C)[C@@H](O)[C@@H](C)[C@H](OC(C)=O)[C@@H]1C [rifampin]		shown to have such an effect
CO[C@H]1/C=C/O[C@@]2(C)Oc3c(C)c(O)c4c(O)c(cc(O)c4c3C2=O)NC(=O)/C(C)=C\C=C\[C@H](C)[C@H](O)[C@@H](C)[C@@H](O)[C@@H](C)[C@H](OC(C)=O)[C@@H]1C [rifamycin]		shown to have such an effect
